In patent publication US20240082228A1, “SARS-COV-2 THERAPEUTICS” (priority 2021, published 2024):
Several values for one entry are separate records, joined by “and”; a condition that tells them apart may be missing. Identical values can stand only once. Like-named read-outs stand apart in the source and are kept apart here.

How the values were obtained:
[1] = for Average Cell Number (1 uM) / Cell Number (1 uM) / Normalized Cell Number (1 uM): compound at 1 uM; for Average Cell Number (1 uM) / Average Cell Number (5 uM): average of normalized cell number, n=3, relative to DMSO; for Cell Number (1 uM) / Normalized Cell Number (1 uM) / Cell Number (5 uM) / Normalized Cell Number (5 uM): single replicate; for Cell Number (1 uM) / Cell Number (5 uM): raw cell count; for Normalized Cell Number (1 uM) / Normalized Cell Number (5 uM): relative to negative control DMSO; for Average Cell Number (5 uM) / Cell Number (5 uM) / Normalized Cell Number (5 uM): compound at 5 uM
SARS-CoV-2 = assay: microbe, parasite or virus in culture; assay type: cell-based; conditions: for activity at 1 µM: Severe acute respiratory syndrome coronavirus 2, 1 uM, read-out: Normalized Infection (1 uM); for HIT: overall, 1 or 5 uM; for activity at 5 µM: Severe acute respiratory syndrome coronavirus 2, 5 uM, read-out: Normalized Infection (5 uM)
[2] = 1 uM, average log2FC infection (n=3) relative to DMSO
[3] = 5 uM, average log2FC infection (n=3) relative to DMSO
[4] = single replicate, relative to negative control DMSO
[5] = 1 uM, single replicate, relative to negative control DMSO
[6] = 5 uM, single replicate, relative to negative control DMSO

| Compound | Toxic (1 uM) [1] | Toxic (5 uM) [1] | Average Cell Number (1 uM) [1] | Cell Number (1 uM) [1] | Normalized Cell Number (1 uM) [1] | Average Cell Number (5 uM) [1] | Cell Number (5 uM) [1] | Normalized Cell Number (5 uM) [1] | HIT (2 Std, 1 uM) (SARS-CoV-2; 1 uM) | Average Infection (1 uM) (SARS-CoV-2; [2]) | Average Infection (5 uM) (SARS-CoV-2; [3]) | activity at 1 µM (SARS-CoV-2; [4]) [%] | HIT (SARS-CoV-2) | HIT (2 Stdv, 5 uM) (SARS-CoV-2; 5 uM) | activity at 5 µM (SARS-CoV-2; [4]) [%] | other results |
| --- | --- | --- | --- | --- | --- | --- | --- | --- | --- | --- | --- | --- | --- | --- | --- | --- |
| CC(C)(C[C@H]1CN(S(=O)(=O)c2cccc(C(F)(F)F)c2)c2cc(-c3cc(F)cc(OC(F)F)c3)ccc2O1)C(=O)O [Cintirorgon, cintirorgon] | 0 (non-toxic (Normalized Cell number>0.65) | 0 (non-toxic (Normalized Cell number>0.65) | 0.7476 | 4247 and 4539 and 4357 | 0.7247 and 0.7746 and 0.7435 | 0.9874 | 5894 and 6058 and 5603 | 0.9946 and 1.022 and 0.9455 | HIT | −0.8423 | −0.109 | 53.8 | Yes | – | – | – |
| O=C(O)CC[C@H]1CC[C@@](c2cc(F)ccc2F)(S(=O)(=O)c2ccc(Cl)cc2)CC1 [MK-0752, mk-0752] | 0 (non-toxic (Normalized Cell number>0.65) | 0 (non-toxic (Normalized Cell number>0.65) | 0.6912 | 3905 and 4070 and 4177 | 0.6664 and 0.6945 and 0.7128 | 0.8746 | 5100 and 5130 and 5319 | 0.8606 and 0.8656 and 0.8975 | HIT | −0.4386 | −0.353 | 70.8 | Yes | – | – | – |
| CS(=O)(=O)N1CCc2c(-c3cnc(N)nc3)nc(N3CCOCC3)nc21 [CH5132799, ch5132799] | 0 (non-toxic (Normalized Cell number>0.65) | – | 0.6597 | 4526 and 3593 and 3479 | 0.7724 and 0.6131 and 0.5937 | 0.5239 | 3141 and 3289 and 2884 | 0.53 and 0.555 and 0.4867 | HIT | −1.059 | −3.565 | 42.1 | Yes | HIT | 8.27 | – |
| CC(C(=O)O)c1ccc(C(=O)c2ccccc2)s1 (stereo not drawn) [Tiaprofenic Acid, tiaprofenic acid] | 0 (non-toxic (Normalized Cell number>0.65) | 0 (non-toxic (Normalized Cell number>0.65) | 0.8638 | 5511 and 5420 and 4255 | 0.9404 and 0.9249 and 0.7261 | 0.9679 | 6146 and 5679 and 5383 | 1.037 and 0.9583 and 0.9083 | HIT | −0.4462 | −0.06461 | 71.2 | Yes | – | – | – |
| CC(C)OC(=O)[C@H](C)N[P@](=O)(OC[C@H]1O[C@@H](n2ccc(=O)[nH]c2=O)[C@](C)(F)[C@@H]1O)Oc1ccccc1 [PSI-7977, Sofosbuvir] | 0 (non-toxic (Normalized Cell number>0.65) | 0 (non-toxic (Normalized Cell number>0.65) | 1.039 | 6209 and 5916 and 6135 | 1.06 and 1.01 and 1.047 | 0.991 | 5941 and 5681 and 5997 | 1.002 and 0.9586 and 1.012 | – | – | – | 80.9 | Yes | HIT | 70.5 | Average Infection (1 uM) (SARS-CoV-2): −0.27; Average Infection (5 uM) (SARS-CoV-2): −0.4905 |
| osanetant | 0 (non-toxic (Normalized Cell number>0.65) | 0 (non-toxic (Normalized Cell number>0.65) | 0.6882 | 4045 and 3932 and 4122 | 0.6903 and 0.671 and 0.7034 | 0.7783 | 4466 and 4973 and 4398 | 0.7536 and 0.8392 and 0.7421 | HIT | −0.8388 | −3.987 | – | Yes | HIT | – | % Infection (1 uM) (SARS-CoV-2; 1 uM, single replicate of triplicate): 13.75% and 14.37% and 16.0359%; Normalized Infection (1 uM) (SARS-CoV-2; [5]): 0.5233 and 0.547 and 0.6105; log2FC Infection (1 uM) (SARS-CoV-2; [5]): −0.9343 and −0.8703 and −0.7119; % Infection (5 uM) (SARS-CoV-2; 5 uM, single replicate of triplicate): 0.9628% and 1.307% and 0.7276%; Normalized Infection (5 uM) (SARS-CoV-2; [6]): 0.06253 and 0.08489 and 0.04725; log2FC Infection (5 uM) (SARS-CoV-2; [6]): −3.999 and −3.558 and −4.403 |
| CCCCN(CCCC)CCC(O)c1cc2c(Cl)cc(Cl)cc2c2cc(C(F)(F)F)ccc12 (stereo not drawn) [Halofantrine lot −4, halofantrine] | 0 (non-toxic (Normalized Cell number>0.65) | 0 (non-toxic (Normalized Cell number>0.65) | 0.8035 | 4727 and 4541 and 4857 | 0.8067 and 0.7749 and 0.8288 | 0.6652 | – | – | HIT | −1.202 | −1.864 | 48.6 | Yes | HIT | 23.4 | – |
| CCCCN(CCCC)CCC(O)c1cc2c(Cl)cc(Cl)cc2c2cc(C(F)(F)F)ccc12 (stereo not drawn) [Halofantrine lot −5, halofantrine] | 0 (non-toxic (Normalized Cell number>0.65) | 0 (non-toxic (Normalized Cell number>0.65) | 0.6582 | 3755 and 3889 and 3927 | 0.6408 and 0.6637 and 0.6701 | 0.8653 | 5286 and 5054 and 5044 | 0.892 and 0.8528 and 0.8511 | HIT | −1.062 | −1.947 | – | Yes | HIT | – | – |
| Cc1cncc(CN2CCC(=C3c4ccc(Cl)cc4CCc4cccnc43)CC2)c1 [Rupatadine, rupatadine] | 0 (non-toxic (Normalized Cell number>0.65) | 0 (non-toxic (Normalized Cell number>0.65) | 0.795 | 4468 and 4936 and 4572 | 0.7625 and 0.8423 and 0.7802 | 0.9184 | 5730 and 5462 and 5136 | 0.9669 and 0.9217 and 0.8667 | HIT | – | – | 51.5 | Yes | – | 88.1 | Average Infection (1 uM) (SARS-CoV-2): −0.7916; Average Infection (5 uM) (SARS-CoV-2): −0.09608 |
